Earlier results, collected in patent US5607940A (priority 1994, dated 1997).

Tests used:
[1] = silver anode; listed as MHCl, hydrochloride
[2] = in vivo

| Compound | utilization of morphine [1] | time to clinically effective blood levels [2] [min] |
| --- | --- | --- |
| CN1CC[C@]23c4c5ccc(O)c4O[C@H]2[C@@H](O)C=C[C@H]3[C@H]1C5.Cl [morphine hydrochloride] | about 10% |  |
| CN1CC[C@]23c4c5ccc(O)c4O[C@H]2[C@@H](O)C=C[C@H]3[C@H]1C5 [morphine] |  | 15 to 20 |
